Measurements published in patent publication US11590129B2, “Combination therapy with an antitumor alkaloid” (PHARMA MAR, S.A., priority 2010, dated 2023).

Columns and labels:
[1] = tested on: JURKAT human leukemia cell line; experiment: cells
Method: (§1) Additional serial dilutions were prepared in serum-free culture medium to achieve a final 4× concentration. Aliquots of 50 μL of each diluted compound were added per well.
(§2) JURKAT and MOLT-4 were the human leukemia cell lines selected for this assay, which were obtained from the American Type Culture Collection (ATCC).
(§3) Briefly, cells were seeded in 96 well microtiter plates at a density of 50000 cells per well in 150 μL of culture medium and incubated for 4-6 hours in drug-free medium before treatment with vehicle alone or test compounds for 72 hours.
(§4) After incubation, the cytotoxic effect was evaluated using a MTT reduction assay. 50 μL of MTT solution (1 mg/mL) were added to the wells and incubated for 15-17 hours at 37° C. until formazan crystals were formed. After gently removing the culture medium, DMSO was added to dissolve the insoluble purple formazan product into a colored solution. […] Results were expressed as percentage of control cell growth. The EC50 values (half-maximal effective concentration) used for the combination studies were calculated using Prism v5.02 software (GraphPad). EC50 was expressed as molar concentration and represented the mean of at least three independent assays.
(§5) b. In a second set of experiments, concentration-response curves for the agents tested, both alone and in two-drug combination, were performed, using the same methodology described in the previous paragraph.
(§6) Using these starting concentrations, constant serial dilutions were performed to generate the concentration-response curves for each set of drugs, alone and in combination.
(§7) Based on this equation, the term “combination index” (CI) is used as a quantitative measure of the degree of drug interactions. […] CI values were calculated by solving the equation for different values of fa (i.e., for different degrees of cell groth inhibition).
(§8) Data were analyzed using CalcuSyn software (Biosoft, Cambridge, UK). For statistical analysis and graphs Prism software (GraphPad, San Diego, USA) was used. All the results represent the mean of at least three independent experiments.

[2] = tested on: MOLT-4 human leukemia cell line; experiment: cells
Method: as §1, §2, §3, §4, §5, §6, §7, §8

[3] = tested on: PANC-1 human pancreatic carcinoma cell line; experiment: cells
Method: (§9) a. […] Briefly, cells were harvested and seeded in 96 well microtiter plates at a density of 5,000 cells in 150 μL of culture medium and incubated for 24 hours in drug-free medium before treatment with vehicle alone or test compounds for 72 h.
(§10) The cytotoxic effect was measured by the MTT reduction assay, in which 3-(4,5-Dimethylthiazol-2-yl)-2,5-diphenyltetrazolium bromide, a tetrazole, which is reduced to purple formazan in the mitochondria of living cells, was used. MTT (50 μL of 1 mg/mL stock solution) was added to the wells and incubated for 8 hours at 37° C. until formazan crystals were formed. After gently removing the culture medium, DMSO was added to dissolve the insoluble purple formazan product into a colored solution. […] Results were expressed as percentage of control cell growth.
(§11) b. In a second set of assays, A549 human tumor cells were incubated with PM01183 in combination with each of the agents mentioned above.
(§12) As a visual aid, response values were plotted on a scatter plot with dose ratios given on the x-axis and % response values on the y-axis. […] In cases where response values at the two endpoints were approximately equivalent, points lying above or below this predicted line of additivity could be interpreted as representing antagonistic or synergistic drug interaction, respectively.
as §1
PANC-1 was the human pancreatic carcinoma cell line selected for this assay.

[4] = tested on: RXF-393 human kidney carcinoma cell line; experiment: cells
[5] = tested on: MDA-MB-231 human breast adenocarcinoma cell line; experiment: cells
[6] = tested on: A673 human rhabdomyosarcoma cell line; experiment: cells
How it was run: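 A673 cells seeded at 5,000 per well, grown 24 h drug-free, then exposed to compounds for 72 h. Viability by MTT reduction (8 h, 37 °C), formazan dissolved in DMSO. Results expressed as percentage of control cell growth.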

[7] = tested on: A549 human lung carcinoma cell line; experiment: MTT cytotoxicity assay in A549 cells: IC50 of single agents and combinations with PM01183; assay type: cell-based; details: Homo sapiens; A549, 72 hours drug exposure, MTT; read-out: IC50
How it was run: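 A549 cells seeded at 5,000 per well, grown 24 h drug-free, then exposed to vehicle or compounds for 72 h, either singly or combined with PM01183. Combination responses plotted against dose ratio relative to an additivity line.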

[8] = tested on: HepG2 human hepatocellular liver carcinoma cell line; experiment: MTT cytotoxicity assay in HepG2 cells: IC50 of single agents and combinations with PM01183; assay type: cell-based; details: Homo sapiens; HepG2, 72 hours drug exposure, MTT; read-out: IC50
[9] = tested on: PC-3 human prostate cancer cell line; experiment: cells
How it was run: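 Cells seeded at 5,000/well, grown 24 h drug-free, then exposed to vehicle or test compounds for 72 h. Viability by MTT reduction (8 h, 37 °C), formazan dissolved in DMSO. Values given as percentage of control cell growth.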

[10] = tested on: RAMOS human lymphoma cell line; experiment: cells
Method: as §3, §4, §6, §7, §8, §1
(§13) In the second set of assays, concentration-response curves for the agents tested, both alone and in two-drug combination, were performed.

[11] = tested on: U-937 human lymphoma cell line; experiment: cells
Method: as §3, §4, §6, §7, §8, §1, §13

[12] = tested on: HGC-27 human gastric carcinoma cell line; experiment: cells
[13] = tested on: IGROV-1 human ovarian adenocarcinoma cell line; experiment: cells
[14] = tested on: SK-MEL-2 human melanoma cell line; experiment: cells
Method: as §9, §10, §11, §12, §1
SK-MEL-2 was the human melanoma cell line selected for this assay.

[15] = tested on: U87-MG human glioblastoma cell line; experiment: cells; details: U87-MG, 72 hours drug exposure, MTT
[16] = tested on: HT-29 human colon adenocarcinoma cell line; experiment: cells; details: HT-29, 72 hours drug exposure, MTT
How it was run: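 HT-29 cells (5,000/well) were attached for 24 h, then exposed to vehicle or compounds for 72 h. Viability was read by MTT reduction, with 8 h MTT at 37° C and formazan dissolved in DMSO. Values are % of control cell growth.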

[17] = RXF-393, 72 hours drug exposure, MTT
[18] = A673, 72 hours drug exposure, MTT
[19] = HGC-27, 72 hours drug exposure, MTT
[20] = IGROV-1, 72 hours drug exposure, MTT

COc1c(C)cc2c(c1O)[C@@H]1[C@@H]3Cc4c(OC(C)=O)c(C)c5c(c4[C@H](CNC(=O)/C=C/c4cccc(C(F)(F)F)c4)N3[C@@H](O)[C@H](C2)N1C)OCO5 [PM00104]
EC50 ([1]; Homo sapiens, Jurkat, 72 h): 4.83 nM | EC50 ([2]; Homo sapiens, MOLT-4, 72 h): 1.55 nM | IC50 ([3]; Homo sapiens, PANC-1, 72 h): 7.89 nM | IC50 ([4]; Homo sapiens, RXF 393, 72 h): 5.4 nM | IC50 ([5]; Homo sapiens, MDA-MB-231, 72 h): 1 nM | IC50 ([6]; Homo sapiens, A673, 72 h): 3 nM | IC50 [7]: 7 nM | IC50 [8]: 3 nM | IC50 ([9]; Homo sapiens, PC-3, 72 h): 7.1 nM | EC50 ([10]; Homo sapiens, Ramos, 72 h): 4.35 nM | EC50 ([11]; Homo sapiens, U-937, 72 h): 4.5 nM | IC50 ([12]; Homo sapiens, HGC-27, 72 h): 3.2 nM | IC50 ([13]; Homo sapiens, IGROV-1, 72 h): 3.3 nM | IC50 ([14]; Homo sapiens, SK-MEL-2, 72 h): 2 nM

C/C=C1\NC(=O)[C@H](Cc2ccccc2)NC(=O)[C@@H](C(C)C)NC(=O)[C@@H]([C@@H](C)CC)NC(=O)[C@H](NC(=O)[C@H](NC(=O)[C@H](CCCN)NC(=O)[C@H]2CCCN2C(=O)[C@H](NC(=O)[C@@H](NC(=O)[C@@H](NC(=O)[C@H](NC(=O)CC[C@@H](C)CC)C(C)C)[C@@H](C)O)C(C)C)C(C)C)[C@@H](C)CC)[C@@H](C)OC(=O)[C@H](C(C)C)NC1=O [PM02734, (4S)-MeHex-D-Val-L-Thr-L-Val-D-Val-D-Pro-L-Orn-D-allo-Ile-cyclo(D-allo-Thr-D-allo-Ile-D-Val-L-Phe-Z-Dhb-L-Val)]
EC50 ([1]; JURKAT, 72 hours exposure, MTT): 5500 nM | EC50 ([2]; MOLT-4, 72 hours exposure, MTT): 14400 nM | IC50 ([3]; PANC-1, 72 hours drug exposure, MTT): 9000 nM | IC50 [4, 17]: 5000 nM | IC50 ([5]; 72 h): 2800 nM | IC50 [6, 18]: 3600 nM | IC50 ([9]; 72 h): 540 nM | IC50 [15]: 4080 nM | IC50 [16]: 214 nM | EC50 ([10]; RAMOS, 72 hours exposure, MTT): 13600 nM | EC50 ([11]; U-937 tumor cell line, single agent): 6850 nM | IC50 [12, 19]: 950 nM | IC50 [13, 20]: 333 nM | IC50 ([14]; SK-MEL-2, 72 hours drug exposure, MTT): 1760 nM

aplidine
EC50 ([1]; JURKAT, 72 hours exposure, MTT): 13.8 nM | EC50 ([2]; MOLT-4, 72 hours exposure, MTT): 1.27 nM | IC50 [4, 17]: 1.5 nM | IC50 [6, 18]: 2.16 nM | IC50 [15]: 3.8 nM | IC50 [16]: 1.76 nM | IC50 [12, 19]: 9 nM | IC50 [13, 20]: 1.5 nM
